Key:
NCI-H23 = test: Antiproliferative activity against human NCI-H23 cells assessed as cell growth inhibition at 10 uM incubated for 24 hrs by sulforhodamine B assay; format: functional; settings: read-out: GI
Malme-3M = test: Antiproliferative activity against human Malme-3M cells assessed as cell growth inhibition at 10 uM incubated for 24 hrs by sulforhodamine B assay; format: functional; settings: read-out: GI
NCI-H226 = test: Antiproliferative activity against human NCI-H226 cells assessed as cell growth inhibition at 10 uM incubated for 24 hrs by sulforhodamine B assay; format: functional; settings: read-out: GI
MCF7 [1] = test: Antiproliferative activity against human MCF7 cells assessed as cell growth inhibition at 10 uM incubated for 24 hrs by sulforhodamine B assay; format: functional; settings: read-out: GI
CCRF-CEM = test: Antiproliferative activity against human CCRF-CEM cells assessed as cell growth inhibition at 10 uM incubated for 24 hrs by sulforhodamine B assay; format: functional; settings: read-out: GI
HCT-116 = test: Antiproliferative activity against human HCT-116 cells assessed as cell growth inhibition at 10 uM incubated for 24 hrs by sulforhodamine B assay; format: functional; settings: read-out: GI
TK-10 = test: Antiproliferative activity against human TK-10 cells assessed as cell growth inhibition at 10 uM incubated for 24 hrs by sulforhodamine B assay; format: functional; settings: read-out: GI
OVCAR-4 = test: Antiproliferative activity against human OVCAR-4 cells assessed as cell growth inhibition at 10 uM incubated for 24 hrs by sulforhodamine B assay; format: functional; settings: read-out: GI
LOX IMVI = test: Antiproliferative activity against human LOX IMVI cells assessed as cell growth inhibition at 10 uM incubated for 24 hrs by sulforhodamine B assay; format: functional; settings: read-out: GI
OVCAR-3 = test: Antiproliferative activity against human OVCAR-3 cells assessed as cell growth inhibition at 10 uM incubated for 24 hrs by sulforhodamine B assay; format: functional; settings: read-out: GI
786-0 = test: Antiproliferative activity against human 786-0 cells assessed as cell growth inhibition at 10 uM incubated for 24 hrs by sulforhodamine B assay; format: functional; settings: read-out: GI
MCF7 [2] = test: Antiproliferative activity against human MCF7 cells assessed as reduction in cell viability incubated for 24 hrs by sulforhodamine B assay; format: functional, cell-based; settings: MCF7, 24 h
SF-295 = test: Antiproliferative activity against human SF-295 cells assessed as cell growth inhibition at 10 uM incubated for 24 hrs by sulforhodamine B assay; format: functional; settings: read-out: GI
T47D [3] = test: Antiproliferative activity against human T47D cells assessed as cell growth inhibition at 10 uM incubated for 24 hrs by sulforhodamine B assay; format: functional; settings: read-out: GI
SN12C = test: Antiproliferative activity against human SN12C cells assessed as cell growth inhibition at 10 uM incubated for 24 hrs by sulforhodamine B assay; format: functional; settings: read-out: GI
Carbonic anhydrase 9 = Carbonic anhydrase 9 (Homo sapiens, UniProt Q16790); test: Inhibition of human CA9 preincubated for 15 mins by phenol red dye based stopped flow CO2 hydration assay
K562 = test: Antiproliferative activity against human K562 cells assessed as cell growth inhibition at 10 uM incubated for 24 hrs by sulforhodamine B assay; format: functional; settings: read-out: GI
UO-31 = test: Antiproliferative activity against human UO-31 cells assessed as cell growth inhibition at 10 uM incubated for 24 hrs by sulforhodamine B assay; format: functional; settings: read-out: GI
SK-MEL-5 = test: Antiproliferative activity against human SK-MEL-5 cells assessed as cell growth inhibition at 10 uM incubated for 24 hrs by sulforhodamine B assay; format: functional; settings: read-out: GI
SF-268 = test: Antiproliferative activity against human SF-268 cells assessed as cell growth inhibition at 10 uM incubated for 24 hrs by sulforhodamine B assay; format: functional; settings: read-out: GI
T47D [4] = test: Antiproliferative activity against human T47D cells assessed as reduction in cell viability incubated for 24 hrs by sulforhodamine B assay; format: functional, cell-based
NCI/ADR-RES = test: Antiproliferative activity against human NCI-ADR-RES cells assessed as cell growth inhibition at 10 uM incubated for 24 hrs by sulforhodamine B assay; format: functional; settings: read-out: GI
HOP-92 = test: Antiproliferative activity against human HOP-92 cells assessed as cell growth inhibition at 10 uM incubated for 24 hrs by sulforhodamine B assay; format: functional; settings: read-out: GI
NCI-H522 = test: Antiproliferative activity against human NCI-H522 cells assessed as cell growth inhibition at 10 uM incubated for 24 hrs by sulforhodamine B assay; format: functional; settings: read-out: GI
SF-539 = test: Antiproliferative activity against human SF-539 cells assessed as cell growth inhibition at 10 uM incubated for 24 hrs by sulforhodamine B assay; format: functional; settings: read-out: GI
MOLT-4 = test: Antiproliferative activity against human MOLT-4 cells assessed as cell growth inhibition at 10 uM incubated for 24 hrs by sulforhodamine B assay; format: functional; settings: read-out: GI

`Cc1ccc(-c2nc(SCC(=O)c3ccccc3)nc(Nc3ccc(S(N)(=O)=O)cc3)c2C#N)cc1` was tested, and the inhibition of growth at 10 µM (NCI-H23) was 65.5%, the inhibition of growth at 10 µM (Malme-3M) was 66.4% and the inhibition of growth at 10 µM (NCI-H226) was 28.6%. The inhibition of growth at 10 µM (MCF7 [1]) was 34.9%, the inhibition of growth at 10 µM (CCRF-CEM) was 18% and the inhibition of growth at 10 µM (HCT-116) was 64.1%. The inhibition of growth at 10 µM (TK-10) was 32.5%, the inhibition of growth at 10 µM (OVCAR-4) was 75.7% and the inhibition of growth at 10 µM (LOX IMVI) was 84.5%. For the same compound, the inhibition of growth at 10 µM (OVCAR-3) was 96%, the inhibition of growth at 10 µM (786-0) was 53.7% and the IC50 (MCF7 [2]) was > 100 µM. The inhibition of growth at 10 µM (SF-295) was 63.3%, the inhibition of growth at 10 µM (T47D [3]) was 16.1% and the inhibition of growth at 10 µM (SN12C) was 37%. It also gave a Ki (Carbonic anhydrase 9) of 0.0074 µM, an inhibition of growth at 10 µM (K562) of 29.9% and an inhibition of growth at 10 µM (UO-31) of 25.1%. For the same compound, the inhibition of growth at 10 µM (SK-MEL-5) was 24.5%, the inhibition of growth at 10 µM (SF-268) was 23.3% and the IC50 (T47D [4]) was > 100 µM. The inhibition of growth at 10 µM (NCI/ADR-RES) was 18.3%, the inhibition of growth at 10 µM (HOP-92) was 62.4% and the inhibition of growth at 10 µM (NCI-H522) was 12.9%. For the same compound, the inhibition of growth at 10 µM (SF-539) was 81.7% and the inhibition of growth at 10 µM (MOLT-4) was 13.4%.

— ChEMBL document CHEMBL5038625, “Application of the dual-tail approach for the design and synthesis of novel Thiopyrimidine-Benzenesulfonamide hybrids as selective carbonic anhydrase inhibitors” (Eur J Med Chem, 2022)
